According to patent US7960377B2 (priority 2008, dated 2011):
pEC50: −log10 of the molar value.

Biological target: human CB1 receptor (Homo sapiens, UniProt P21554)
Assay: cell-based

Chain of human CB1 receptor (P21554 whole entry): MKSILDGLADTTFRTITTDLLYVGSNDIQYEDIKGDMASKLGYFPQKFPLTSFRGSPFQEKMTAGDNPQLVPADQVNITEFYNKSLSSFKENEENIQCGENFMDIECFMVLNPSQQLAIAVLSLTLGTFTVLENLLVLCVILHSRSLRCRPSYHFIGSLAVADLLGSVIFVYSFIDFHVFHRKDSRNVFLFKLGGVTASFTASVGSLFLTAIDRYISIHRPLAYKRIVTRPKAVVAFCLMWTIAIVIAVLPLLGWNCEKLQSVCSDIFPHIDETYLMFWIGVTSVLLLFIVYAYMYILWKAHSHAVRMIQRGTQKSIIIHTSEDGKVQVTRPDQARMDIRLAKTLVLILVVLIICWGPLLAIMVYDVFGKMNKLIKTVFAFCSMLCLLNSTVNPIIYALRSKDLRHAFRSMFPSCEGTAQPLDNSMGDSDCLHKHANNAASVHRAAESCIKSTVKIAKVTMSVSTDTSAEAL

SMILES | pEC50
O=C(c1cnc2c(c1)N(S(=O)(=O)c1ccc(C(F)(F)F)cc1)CCO2)N1CCCCC1CO (racemic) [Example 72, +/− (2-(hydroxymethyl)piperidin-1-yl)(1-(4-(trifluoro-methyl)phenylsulfonyl)-2,3-dihydro-1H-pyrido [2,3-b][1,4]oxazin-7-yl) methanone] | < 4.52
COC(=O)CC1CCCCN1C(=O)c1cnc2c(c1)N(S(=O)(=O)c1ccc(C(F)(F)F)cc1)CCO2 (racemic) [Example 73, +/− methyl 2-(1-(1-(4-(trifluoromethyl)phenylsulf-onyl)-2,3-dihydro-1H-pyrido[2,3-b][1,4]oxazine-7-carbonyl)piperidin-2-yl)acetate] | < 4.52
O=C(c1cnc2c(c1)N(S(=O)(=O)c1ccc(C(F)(F)F)cc1)CCO2)N1CCCCC1CN1CCCC1 (racemic) [Example 75, +/− (2-(pyrrolidin-1-ylmethyl)piperidin-1-yl)(1-(4-(trifluoromethyl)-phenylsulfonyl)-2,3-dihydro-1H-pyrido[2,3-b][1,4]oxazin-7-yl)-methanone] | < 4.52
O=C(c1cnc2c(c1)N(S(=O)(=O)c1ccc(C(F)(F)F)cc1)CCO2)N1CCCCC1CN1CCOCC1 (racemic) [Example 76, +/− (2-(morpholino-methyl)piperidin-1-yl)(1-(4-(trifluoromethyl)-phenylsulfonyl)-2,3-dihydro-1H-pyrido[2,3-b][1,4]oxazin-7-yl)methanone] | < 4.52
O=C(c1cnc2c(c1)N(S(=O)(=O)c1ccccc1)CCO2)N1CCCCC1 [Example 1, (1-(phenylsulfonyl)-2,3-dihydro-1H-pyrido[2,3-b][1,4]oxazin-7-yl)(piperidin-1-yl)methanone] | < 4.52
O=C(NCC1CCOCC1)c1cnc2c(c1)N(S(=O)(=O)c1ccc(F)cc1)CCO2 [Example 9, 1-(4-fluorophenyl-sulfonyl)-N-((tetrahydro-2H-pyran-4-yl)methyl)-2,3-dihydro-1H-pyrido[2,3-b][1,4]oxazine-7-carboxamide] | < 4.52
CCN(CC)C(=O)c1cnc2c(c1)N(S(=O)(=O)c1ccc(F)cc1)CCO2 [Example 13, N,N-diethyl-1-(4-fluorophenylsulfonyl)2,3-dihydro-1H-pyrido[2,3-b][1,4]oxazine-7-carboxamide] | < 4.52
O=C(NCC1CCCO1)c1cnc2c(c1)N(S(=O)(=O)c1ccc(F)cc1)CCO2 (stereo not drawn) [Example 14, 1-(4-fluorophenyl-sulfonyl)-N-((tetra-hydrofuran-2-yl)methyl)-2,3-dihydro-1H-pyrido [2,3-b][1,4]oxazine-7-carboxamide] | < 4.52
CC(C)(C)NC(=O)c1cnc2c(c1)N(S(=O)(=O)c1cccnc1)CCO2 [Example 16, N-tert-butyl-1-(pyridin-3-ylsulfonyl)-2,3-dihydro-1H-pyrido[2,3-b][1,4]oxazine-7-carboxamide] | < 4.52
O=C(NC1CCCC1)c1cnc2c(c1)N(S(=O)(=O)c1cccnc1)CCO2 [Example 17, N-cyclopentyl-1-(pyridin-3-ylsulfonyl)-2,3-dihydro-1H-pyrido[2,3-b][1,4]oxazine-7-carboxamide] | < 4.52
CC(C)CS(=O)(=O)N1CCOc2ncc(C(=O)NC(C)(C)C)cc21 [Example 28, N-tert-butyl-1-(isobutylsulfonyl)-2,3-dihydro-1H-pyrido[2,3-b][1,4]oxazine-7-carboxamide] | < 4.52
CC(C)CS(=O)(=O)N1CCOc2ncc(C(=O)NC3CCCC3)cc21 [Example 29, N-cyclopentyl-1-(isobutylsulfonyl)-2,3-dihydro-1H-pyrido[2,3-b][1,4]oxazine-7-carboxamide] | < 4.52
CN(Cc1ccccc1)C(=O)c1cnc2c(c1)N(S(=O)(=O)c1ccc(F)cc1)CCO2 [Example 32, N-benzyl-1-(4-fluorophenylsulfonyl)-N-methyl-2,3-dihydro-1H-pyrido[2,3-b][1,4]oxazine-7-carboxamide] | < 4.52
COCCN(C)C(=O)c1cnc2c(c1)N(S(=O)(=O)c1ccc(Cl)cc1)CCO2 [Example 34, 1-(4-chlorophenyl-sulfonyl)-N-(2-methoxy-ethyl)-N-methyl-2,3-dihydro-1H-pyrido[2,3-b][1,4]oxazine-7-carboxamide] | < 4.52
COCCN(C)C(=O)c1cnc2c(c1)N(S(=O)(=O)c1ccc(C(F)(F)F)cc1)CCO2 [Example 35, N-(2-methoxyethyl)-N-methyl-1-(4-(trifluoro-methyl)phenylsulfonyl)-2,3-dihydro-1H-pyrido-[2,3-b][1,4]oxazine-7-carboxamide] | < 4.52
CN(Cc1ccccc1)C(=O)c1cnc2c(c1)N(S(=O)(=O)c1ccc(C(F)(F)F)cc1)CCO2 [Example 36, N-benzyl-N-methyl-1-(4-(trifluoromethyl)phenylsulf-onyl)-2,3-dihydro-1H-pyrido[2,3-b][1,4]oxazine-7-carboxamide] | < 4.52
CC(C)(CN1CCCC1)NC(=O)c1cnc2c(c1)N(S(=O)(=O)c1ccc(C(F)(F)F)cc1)CCO2 [Example 37, N-(2-methyl-1-(pyrrolidin-1-yl)propan-2-yl)-1-(4-(trifluoromethyl)phenylsulf-onyl)-2,3-dihydro-1H-pyrido[2,3-b][1,4]oxazine-7-carboxamide] | < 4.52
CC(C)(C)N(CCC#N)C(=O)c1cnc2c(c1)N(S(=O)(=O)c1ccc(C(F)(F)F)cc1)CCO2 [Example 41, N-tert-butyl-N-(2-cyanoethyl)-1-(4-(trifluoromethyl)phenylsulf-onyl)-2,3-dihydro-1H-pyrido[2,3-b][1,4]oxazine-7-carboxamide] | < 4.52
CC(C)(C)N(CCO)C(=O)c1cnc2c(c1)N(S(=O)(=O)c1ccc(C(F)(F)F)cc1)CCO2 [Example 44, N-tert-butyl-N-(2-hydroxyethyl)-1-(4-(trifluoromethyl)phenylsulf-onyl)-2,3-dihydro-1H-pyrido[2,3-b][1,4]oxazine-7-carboxamide] | < 4.52
CC(C)(N)CNC(=O)c1cnc2c(c1)N(S(=O)(=O)c1ccc(C(F)(F)F)cc1)CCO2 [Example 47, N-(2-amino-2-methylpropyl)-1-(4-(trifluoromethyl)phenylsulf-onyl)-2,3-dihydro-1H-pyrido[2,3-b][1,4]oxazine-7-carboxamide] | < 4.52
O=C(c1cnc2c(c1)N(S(=O)(=O)c1ccc(C(F)(F)F)cc1)CCO2)N1CCCCC1 [Example 49, piperidin-1-yl(1-(4-(trifluoromethyl)phenylsulf-onyl)-2,3-dihydro-1H-pyrido[2,3-b][1,4]oxazin-7-yl)methanone] | < 4.52
O=C(c1cnc2c(c1)N(S(=O)(=O)c1ccc(C(F)(F)F)cc1)CCO2)N1CCOCC1 [Example 50, morpholino(1-(4-(trifluoromethyl)phenylsulf-onyl)-2,3-dihydro-1H-pyrido[2,3-b][1,4]oxazin-7-yl)methanone] | < 4.52
COCCNC(=O)c1cnc2c(c1)N(S(=O)(=O)c1ccc(C(F)(F)F)cc1)CCO2 [Example 51, N-(2-methoxyethyl)-1-(4-(trifluoromethyl)phenysulf-onyl)-2,3-dihydro-1H-pyrido[2,3-b][1,4]oxazine-7-carboxamide] | < 4.52
CC(C)(C)NC(=O)c1cnc2c(c1)N(S(=O)(=O)c1ccc(Cl)cc1Cl)CCO2 [Example 54, N-tert-butyl-1-(2,4-dichlorophenylsulfonyl)-2,3-dihydro-1H-pyrido[2,3-b][1,4]oxazine-7-carboxamide] | < 4.52
